# In patent US7087649B2, “Methods for preventing and treating diseases and conditions associated with cellular stress” (Eisai Co., Ltd., priority 2001, dated 2006):
# How the values were obtained:
# hangover = experiment: clinical self-experiment on hangover symptoms after alcohol consumption; format: in vivo, human; conditions: one inventor on themself; 50 mg orally (capsule) just prior to drinking, 50 mg during, 50 mg next morning; total 150 mg in fourteen hours
# From the text: The invention is based, in part, on a clinical experiment that an inventor of the invention described herein conducted on themself using SELBEX® (geranylgeranylacetone). On one occasion in the evening, they consumed an excessive amount of alcoholic beverages and awoke the following morning experiencing abdominal discomfort, nausea, fatigue, and headache. The normal measures that they had taken in the past to ameliorate hangover provided little relief. They decided that on the next occasion on which they would be drinking alcoholic beverages, they would ingest SELBEX® (geranylgeranylacetone) to determine whether it provided relief. Thus, on a subsequent evening, just prior to the drinking of alcoholic beverages, they ingested 50 mg of SELBEX® (geranylgeranylacetone) orally, in the form of a capsule marketed commercially by Eisai Co., Ltd. During the course of the evening, as they continued drinking alcoholic beverages, they ingested an additional 50 mg of SELBEX® (geranylgeranylacetone) orally. The next morning when they awoke, they ingested an additional 50 mg of SELBEX® (geranylgeranylacetone), bringing the total ingested during a fourteen hour period to 150 mg.
# [1] = cited from earlier work
# [2] = cited from earlier work; remark: listed apart in the source
smiles,measurement,setting,value
"CC(=O)CC/C=C(\C)CC/C=C(\C)CC/C=C(\C)CCC=C(C)C [SELBEX® (geranylgeranylacetone), 3:2 (5E:5Z) geometrical mixture of (9E,13E)-6,10,14,18-tetramethyl-5,9,13,17-nonadecatetraen-2-one]","symptoms of hangover (abdominal discomfort, nausea, fatigue, and headache)",hangover,either abolished or markedly alleviated
same,miscibility with organic solvents,"[1]; methanol, ethanol, acetone, chloroform, and hexane",miscible
same,solubility in water,[1]; water,practically insoluble
same,stability to air,[2],affected by air
